Results on two molecules are retold here after patent US20110045073A1, “METHODS AND COMPOSITIONS OF SPHINGOLIPID FOR PREVENTING AND TREATING MICROBIAL INFECTIONS” (priority 2008, published 2011).

Common to all, as to format: cell-based, Candida albicans
Assay [1] has as its system C. albicans. Kind of assay: synergism between histatin 5 and PHS: PI fluorescence after PHS preincubation, energy-rich (NaCl) or energy-depleted (NaN3). Particulars: for extent of additional increase in PI-fluorescence on addition of Hst5: 25 μM PHS preincubation. On the procedure: C. albicans (ATTC 10231), cultured aerobically at 30° C. on Sabouraud dextrose agar plates (SDA, Oxoid, Hampshire, UK) was suspended in 25 ml of Sabouraud dextrose broth in a 100 ml erlenmeyer flask. After 20 h of incubation at 30° C., 1 ml from this suspension was sub-cultured for 1-2 h in 20 ml of Sabouraud dextrose broth, to obtain a mid-log phase culture. Cells were washed twice in 1 mM potassium phosphate (PPB) or 5 mM Tris (pH 7.2), and resuspended in the same buffer to a cell density of 2 McFarland (McF) (approximately 10^7 cells/ml). Cells were suspended in 5 mM Tris buffer (pH 7.2), supplemented with either 5 mM NaCl or 5 mM NaN3. These suspensions were subsequently incubated with 0, 10, 50 and 100 μM PHS dissolved in 5 mM Tris buffer. After 60 minutes of incubation at 30° C., PI was added, and subsequently dilution series of Hst 5 in the corresponding buffer were added. Final concentration of PI was 10 μM, final concentrations of Hst5 ranged between 0 and 50 μM, final cell density was 10^7 cells/ml and final PHS concentrations were 0, 5, 25 and 50 μM. After 0, 20, 40 and 60 minutes the PI fluorescence was monitored at excitation and emission wavelengths of 544 and 620 nm, respectively, in a Fluostar Galaxy microplate fluorimeter (BMFG Labtechnologies, Offenburg, Germany).

For assay [2], the system named is C. albicans (ATTC 10231). Kind of assay: microdilution viability assay (plate assay, CFU count). Particulars: 1 mM PPB, 60 min at 30° C., CFUs counted. On the procedure: C. albicans (ATTC 10231), cultured aerobically at 30° C. on Sabouraud dextrose agar plates (SDA, Oxoid, Hampshire, UK) was suspended in 25 ml of Sabouraud dextrose broth in a 100 ml erlenmeyer flask. After 20 h of incubation at 30° C., 1 ml from this suspension was sub-cultured for 1-2 h in 20 ml of Sabouraud dextrose broth, to obtain a mid-log phase culture. Cells were washed twice in 1 mM potassium phosphate (PPB) or 5 mM Tris (pH 7.2), and resuspended in the same buffer to a cell density of 2 McFarland (McF) (approximately 10^7 cells/ml). The effects of PHS and Hst5 on the viability of C. albicans were determined in a microdilution viability assay. 50 μl aliquots from a mid-log phase culture of C. albicans were incubated with equal volumes of either peptide or PHS solutions (0.3 to 100 μM) and incubated at 30° C. for 60 min. The incubation mixtures were appropriately diluted (200- to 500-fold) in PBS and 25 μl aliquots were plated on SDA. After 48 h incubation at 30° C. the numbers of CFUs were counted. All experiments were repeated at least three times in duplo. The effect of PHS-treatment on the viability of C. albicans was determined in a micro-dilution viability assay, at the concentration range 0-500 μM (FIG. 1). For comparison the effect of treatment with Hst5 (0-50 μM) is shown. […]

For assay [3], the system named is C. albicans (ATTC 10231). Kind of assay: membrane-disruptive activity, propidium iodide fluorescence (PI assay). Particulars: 1 mM PPB, after 15 and 60 minutes. On the procedure:
C. albicans (ATTC 10231), cultured aerobically at 30° C. on Sabouraud dextrose agar plates (SDA, Oxoid, Hampshire, UK) was suspended in 25 ml of Sabouraud dextrose broth in a 100 ml erlenmeyer flask. After 20 h of incubation at 30° C., 1 ml from this suspension was sub-cultured for 1-2 h in 20 ml of Sabouraud dextrose broth, to obtain a mid-log phase culture. Cells were washed twice in 1 mM potassium phosphate (PPB) or 5 mM Tris (pH 7.2), and resuspended in the same buffer to a cell density of 2 McFarland (McF) (approximately 10^7 cells/ml).
Membrane-disruptive activity of Hst5 and phytosphingosine (PHS) was determined by monitoring the fluorescence enhancement of propidium iodide (Invitrogen, Breda, The Netherlands) in Hst5- or PHS treated cells. The membrane impermeant propidium iodide (PI) only enters membrane-compromised cells, after which the fluorescence of this probe is enhanced 20-30-fold due to its binding to nucleic acids.
Cells obtained by the method described above were suspended in 1 mM PPB buffer (pH 7.2) supplemented with PI (final concentration 10 μM) and subsequently added to two-fold serial dilutions of Hst5 (50 μM down to 0.045 μM) or PHS (500 down to 0.5 μM). Final cell density in the assay was 1 McF. […]

Turning to `CCCCCCCCCCCCCC[C@@H](O)[C@@H](O)[C@@H](N)CO` [PHS, phytosphingosine], the “PI fluorescence induced by PHS preincubation alone” value in assay [1] (25 μM PHS in the presence of NaN3, vs control with NaCl) was “induces an increase in PI fluorescence, comparable to that of the control”. In addition, the “effect of PHS pretreatment on sensitivity of C. albicans to Hst5” value in assay [1] (non-lethal dosages PHS, in particular energy-depleted conditions) is “increases its sensitivity to Hst5”. In assay [1] (preincubation with 25 or 50 μM PHS, NaCl, 6.1 μM Hst5, relative to 0 μM PHS), the “effect of PHS preincubation on Hst5-mediated influx of PI” value was “instantaneously accelerates the Hst5-mediated influx of PI”. For the same molecule, in assay [2], the “concentration at which complete killing was reached” value is 250 µM.
For “histatin 5 (DSHAKRHHGYKRKFHEKHHSHRGY) [Hst5]”, in assay [3], the “concentration needed to induce uptake of PI, Hst5 compared with PHS” value is listed as “induced the uptake of PI at much lower concentrations”. The “extent of additional increase in PI-fluorescence on addition of Hst5” value in assay [1] (NaCl control (energy-rich)) is listed as 1000 fluorescence units; in assay [1] (NaN3 (energy-depleted)), “approx 500 fluorescence units”. For the same molecule, the “effect of energy-depletion on sensitivity of C. albicans to the substance” value in assay [1] (5 mM NaN3 vs 5 mM NaCl in 5 mM Tris, t=0 and t=20 min) is reported as “energy-depletion protects C. albicans against Hst5”. Besides, in assay [1] (after pre-incubation with 25 μM PHS, NaCl, t=0), the “lowest Hst5 concentration with immediate additional increase in PI fluorescence” value came to 0.75 µM. The “concentration at which complete killing was reached” value in assay [2] was 10 µM.
